Data taken from patent EP4458977A1, “SELF-ASSEMBLING PEPTIDE AMPHIPHILES AS RETROVIRAL TRANSDUCTION ENHANCERS” (Max-Planck-Gesellschaft zur Förderung der Wissenschaften …, priority 2023, dated 2024).
Values joined by “and” are separate entries in the source; they are usually repeats but may differ in a detail not shown here. Equal values may be shown once. “Also recorded” adds a separate entry of the source. Where a SMILES comes first, the peptide text is derived from it. The star is where a group is joined. Palmitoyl = CCCCCCCCCCCCCCCC(=O)*

Key:
[1] = system: CD4+ T cells; conditions: 3 days; 1 µg peptide added to 250,000 cells
Description: Confocal laser scanning microscopy and degradation study with PA1-3 and CD4+ T cells: The degradation of the peptide assemblies on CD4+ T cells was determined by analyzing fluorescence microscopy images. To this end, 4 µL of the preassembled peptide fibrils EF-C, PA1 and PA2 (1 mg mL^-1, 1 d in PBS) were mixed with 4 µL of Proteostat (Enzo Life Science, 1 µL stock in 99 µL PBS) and incubated for 15 min. 2 µL of the stained fibrils were added to 198 µL preactivated and nucleus stained (Hoechst 33342) CD4+ T cells (200 µL, 0.25×10^6 resulting in a final 5 µg mL^-1concentration of the peptide. After incubation for 30 min at 37°C the cells were washed with 3x with PBS and incubated in medium (supplemented RPMI containing IL-15 and 7). Microscopy was conducted on a Zeiss LSM 710 confocal microscope with 20x and 63x objective and laser excitation wavelengths of 405 nm (Hoechst) and 561 nm (Proteostat). The measurements were performed after 30 min and 3 d of incubation at 37°C without any washing step in between. […]
The evaluation of aggregate size and number was conducted by analyzing Proteostat-stained aggregates via the 3D objects counter function of ImageJ 1.53f51 for 6 individual measurements (area 581.25 µm × 581.25 µm) of three individually repeated experiments. […] The degradation of the peptide assemblies on CD4+ T cells was determined by analyzing fluorescence microscopy images. […]

[2] = system: CD4+ T cells; assay: γ-retroviral transduction assay (GALV-RV, GFP+ cells); assay type: cell-based, Human
Description: (§1) γ-Retroviral transduction Assay with Jurkat and CD4+ T cells: The effect of peptide fibrils on retroviral transduction of Jurkat cells was analyzed 3 days post transduction by determining the percentage of GFP + cells by flow cytometry. The assay was conducted according prior art procedures.
Human CD4+ T cells were isolated from a Buffy coat using RosetteSep™ Human CD4+ Enrichment Cocktail ([…] Technologies) according to manufacturer's protocol. Isolated T cells were activated using Dynabeads™ Human T-Activator CD3/CD28 (GibcoTM) according to manufacturer's protocol in presence of 10 ng mL^-1 IL-2 (Miltenyi Biotec) for three days. After 3 days the magnetic Dynabeads were removed using a magnet and T cells were cultured in presence of 9 ng mL^-1 IL-7 (Miltenyi Biotec) and 10 ng mL^-1 IL-15 (Miltenyi Biotec). After 1 day 5×10^5 T cells were transduced with GALV-γ-RV in absence and presence of PA1, PA2, EF-C (0.26, 1.3 and 6.5 µM) and Vectofusin®-1 (10 µg mL^-1; Miltenyi Biotec), or RetroNectin (20 µg mL^-1; Takara Bio). […] After 3 days GFP+ T cells were analyzed by flow cytometry. Viability was determined using LIVE/DEAD™ Fixable Aqua Dead Cell Stain Kit (ThermoFisher Scientific) according to manufacturer's protocol.

[3] = Thioflavin T (ThT) fluorescence assay; assay type: physicochemical; set-up: key to ThT: + = ThT active; - = no ThT fluorescence observed; conditions: for ThT: ThT fluorescence, 1 mg/mL, PBS
Description: Transmission electron microscopy (TEM) measurements, Thioflavin (ThT), zeta-potential measurements for fibril characterization were prepared and conducted according to prior art procedures. […] Fibrils were defined as distinct, if no visible structures could be identified in fluorescence and brightfield microscopy. A peptide fibril was considered as ThT-active if the fluorescence intensity was at least twice as strong compared to the control (PBS containing 10% DMSO).

[4] = ATR-FT-IR determination of β-sheet content; assay type: physicochemical; conditions: peak integration of parallel β-sheet at 1630 cm-1, 2nd derivative of ATR-IR spectra
How it was run: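 Lyophilized fibril samples measured by diamond ATR-FT-IR, 2 cm^-1 resolution, 64 scans averaged. β-sheet content taken from the second-derivative spectrum as the 1630 cm-1 peak integral relative to the 1650-1700 cm-1 integral.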

[5] = system: Jurkat cells; assay: γ-retroviral transduction assay (GALV-RV, GFP+ cells); assay type: cell-based
Description: as §1

[6] = Zeta-potential measurement (dynamic light scattering); assay type: physicochemical; conditions: for Zeta Potential / mV: 1 mg/mL, PBS
How it was run: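 Peptide at 1 mg mL-1 stock was diluted tenfold in 1 mM KCl and measured by dynamic light scattering in triplicate. The derived count rate served as a light-scattering and turbidity indicator of microscopic aggregation.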

[7] = as above; assay type: physicochemical
[8] = system: HIV-1;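 further: TZM-bl reporter cells exposed to HIV-1 with peptide fibrils, infection read out as β-galactosidase luminescence, compared with virus alone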
Description: HIV-1 Infection Assay with TZM-bl cells: The effect of peptide fibrils on HIV-1 infection was studied via a luminescence assay for β-galactosidase, which was reported by TZM-bl cells upon infection. The HIV-1 infection assay was conducted in three technical replicates and repeated in three independent experiments unless stated otherwise.

[9] = Fluorescence microscopy of ThT-stained fibrils (µm-sized aggregates); assay type: physicochemical
How it was run: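 Fibrils (1 mg mL^-1) mixed 1:9 with 50 µM ThT, giving 0.1 mg mL^-1 stained fibrils on glass. Imaged under 10x air objective with excitation 480/40 nm and emission 527/30 nm. Fibrils called distinct when no visible structures appeared in fluorescence or brightfield.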

[10] = system: HeLa cells; assay: Confocal laser scanning microscopy and degradation study with PA1-3 and HeLa cells; assay type: cell-based; conditions: for degraded over the course of 3 days in the presence of HeLa cells: 4 µg peptide added to 40,000 cells; for association with cellular membranes: HeLa cells, 30 min
Description: 4 µL of the preformed peptide fibrils (1 mg mL^-1) were diluted with 4 µL Proteostat (Enzo Life Science, 1 µL stock in 999 µL PBS) and incubated for 10 min and further diluted with medium to receive a final peptide concentration of 20 µg mL^-1. The nucleus of the HeLa cells was stained with Hoechst 33342 (NucBlue™, Thermo Fisher Scientific). The peptide solution was transferred to the HeLa cells and incubated for 30 min at 37°C before washing three times with PBS. […] For the evaluation of aggregate degradation, the samples were further incubated at 37°C for 3 d and analyzed without any additional washing step. […] The number of aggregates were determined by accumulating the number of aggregates larger than 10 µm^2 in an area of 581.25 × 581.25 µm, repeated in three technical triplicates.

[11] = system: HeLa cells; assay: Confocal laser scanning microscopy and degradation study with PA library and HeLa cells; assay type: cell-based
How it was run: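 HeLa cells (20,000/well) got Proteostat-stained PAs (2 µg peptide per 20.000 cells) with Hoechst nuclear stain, 30 min at 37°C, PBS-washed, then held 3 d at 37°C unwashed. Confocal imaging at d0 and d3 counted aggregates >10 µm^2 in 1008 × 1008 µm, three technical replicates. Degradation taken as d3/d0 aggregate number.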

[12] = TEM of peptide assemblies (fibril formation / assembly); assay type: physicochemical; set-up: key to Fibril Formation: "1" means fibril formation observed; "0" means no fibrils observed; conditions: for Fibril Formation: via TEM
How it was run: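 Peptides predissolved in DMSO at 10 mg/mL (stock), diluted in PBS to 650 µM or 1 mg/mL final and incubated 1 d at rt (20–25 °C) to form fibrils. Other concentrations obtained by diluting preformed fibrils; assemblies imaged by TEM.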

SMILES | transduction enhancement (in words) [2] | ThT [3] | β-sheet content / % [4] | transduction enhancement (in words) [5] | zeta-potential (in words) [6] | Zeta Potential / mV [6] | formation of µm-sized aggregates in aqueous medium / PBS (in words) [9] | degraded over the course of 3 days in the presence of HeLa cells [10] | association with cellular membranes [10] | further results
CCCCCCCCCCCCCCCC(=O)N[C@H](C(=O)N[C@H](C(=O)N[C@H](C(=O)N[C@@H](C)C(=O)N[C@@H](C)C(=O)N[C@@H](C)C(=O)N[C@@H](CCCCN)C(=O)N[C@@H](CCCCN)C(=O)N[C@@H](CCCCN)C(N)=O)C(C)C)C(C)C)C(C)C [PA1] (Palmitoyl-VVVAAAKKK-NH2) | activity in the range of commercially available gold-standard enhancers RetroNectin and Vectofusin-1 | + | 57% | strong transduction enhancement similar to EF-C | positive zeta-potential | +22.2 ± 0.7 mV | formation of µm-sized aggregates; also recorded: microscopic clusters of fibrils were formed | 94% | association with cellular membranes | degradation of aggregates by CD4+ T cells (in words) [1]: almost all small aggregates of PA1 (SEQ ID NO. 4) are degraded by CD4+ T cells; N-fold ThT-fluorescence ([3]; relative to PBS control): 278.7; Count Rate / kcps ([6]; derived count rate of scattered light during zeta-potential measurements): 3138.4 kcps; Zeta-Potential / mV [7]: 22.2 mV; Infectivity enhancing N fold at 1.3 µM ([8]; relative to virus only): 10±3 N fold; Degradability / % (rel. to initial particles > 10 µm^2) ([11]; HeLa cells, 3 d relative to 30 min): 94%; aggregate number decreases / degraded in presence of HeLa cells within 3 days ([11]; d3 relative to d0): 87% and 94%; Assembly without hydrophob residue ([12]; corresponding peptide without hydrophobic moiety): No; Assembly ([12]; peptide amphiphile): Yes; Fibril Formation ([12]; hydrophobic moiety exchange): 1; Fibril Formation ([12]; linkage chemistry exchange): 1
CCCCCCCCCCCCCCCC(=O)N[C@@H](Cc1ccccc1)C(=O)N[C@@H](CCC(N)=O)C(=O)N[C@@H](Cc1ccccc1)C(=O)N[C@@H](CCCCN)C(=O)N[C@@H](Cc1ccccc1)C(=O)N[C@@H](CCCCN)C(=O)N[C@@H](CS)C(N)=O [PA2, C16-FQFKFKC-NH2] (Palmitoyl-FQFKFKC-NH2) | activity in the range of commercially available gold-standard enhancers RetroNectin and Vectofusin-1 | + | 59% | strong transduction enhancement similar to EF-C | positive zeta-potential | +19.2 ± 3.4 mV | formation of µm-sized aggregates; also recorded: microscopic clusters of fibrils were formed | 53% | association with cellular membranes | –
CCCCCCCCCCCCCCCC(=O)N[C@H](C(=O)N[C@H](C(=O)N[C@H](C(=O)N[C@@H](C)C(=O)N[C@@H](C)C(=O)N[C@@H](C)C(=O)N[C@@H](CCC(=O)O)C(=O)N[C@@H](CCC(=O)O)C(=O)N[C@@H](CCC(=O)O)C(N)=O)C(C)C)C(C)C)C(C)C [PA3] (Palmitoyl-VVVAAAEEE-NH2) | – | + | 61% | – | negative zeta-potential | -29.8 ± 2.7 mV | does not form µm-sized aggregates in PBS; also recorded: did not bundle or adopt µm-sized aggregates in PBS | – | did not associate with cells | enhancement of HIV-1 infection / transduction (in words) ([8]; 6.5 µM, 1.3 µM, 0.26 µM): no transduction enhancement; TEM morphology (in words) ([12]; 1 mg/mL in PBS): distinct fibrils
